Our source for the IC50 values is patent publication US9593097B2, “Axl inhibitors” (Pfizer Inc., priority 2014, dated 2017).

In this test the target is Axl phosphorylation in 293MSR-AxlWT6 cells (Homo sapiens (Human), UniProt P30530). The test can be described thus: Cellular Axl phosphorylation ELISA assay (Gas6-stimulated 293MSR-AxlWT6 cells). It is filed as cell-based. The conditions noted are these: Table 4A, read-out: CELL AXL IC50. How it is done: Cellular Axl Phosphorylation ELISA Assay
After 6-7 hrs in tissue culture incubator at 37° C. 5% CO2, medium was removed, serum-free medium was added (with 0.04% bovine serum albumin) and plates were returned to incubator where they remained overnight. […] Media was then removed and lysis buffer was added to wells and shaken at 4° C. for 30 min to generate protein lysates. Subsequently, phosphorylation of Axl was assessed by a sandwich ELISA method using a DuoSet IC Human Phospho-Axl ELISA assay kit (R&D System), an immobilized mouse anti-human Axl antibody and an anti-phospho-tyrosine-HRP antibody as a detection antibody. Antibody-coated plates were (a) incubated in presence of protein lysates at room temperature for 2 hrs, (b) washed seven times in 0.1% Tween 20 in PBS, (c) incubated with secondary antibody (a horseradish peroxidase-conjugated […]) for 2 hrs, (d) washed seven times again, (e) TMB peroxidase substrate (Bio-Rad) was added to initiate a colorimetric reaction and stopped by adding 0.2 N H2SO4, and (f) measured at OD 450 nm using a spectrophotometer. IC50 values were calculated by concentration-response curve fitting using a four-parameter analytic method and reported in μM.
For Table 4B, IC50 values were calculated by concentration-response curve fitting using a four-parameter analytic method and reported in nM.

Sequence of Axl phosphorylation in 293MSR-AxlWT6 cells (P30530 26-894): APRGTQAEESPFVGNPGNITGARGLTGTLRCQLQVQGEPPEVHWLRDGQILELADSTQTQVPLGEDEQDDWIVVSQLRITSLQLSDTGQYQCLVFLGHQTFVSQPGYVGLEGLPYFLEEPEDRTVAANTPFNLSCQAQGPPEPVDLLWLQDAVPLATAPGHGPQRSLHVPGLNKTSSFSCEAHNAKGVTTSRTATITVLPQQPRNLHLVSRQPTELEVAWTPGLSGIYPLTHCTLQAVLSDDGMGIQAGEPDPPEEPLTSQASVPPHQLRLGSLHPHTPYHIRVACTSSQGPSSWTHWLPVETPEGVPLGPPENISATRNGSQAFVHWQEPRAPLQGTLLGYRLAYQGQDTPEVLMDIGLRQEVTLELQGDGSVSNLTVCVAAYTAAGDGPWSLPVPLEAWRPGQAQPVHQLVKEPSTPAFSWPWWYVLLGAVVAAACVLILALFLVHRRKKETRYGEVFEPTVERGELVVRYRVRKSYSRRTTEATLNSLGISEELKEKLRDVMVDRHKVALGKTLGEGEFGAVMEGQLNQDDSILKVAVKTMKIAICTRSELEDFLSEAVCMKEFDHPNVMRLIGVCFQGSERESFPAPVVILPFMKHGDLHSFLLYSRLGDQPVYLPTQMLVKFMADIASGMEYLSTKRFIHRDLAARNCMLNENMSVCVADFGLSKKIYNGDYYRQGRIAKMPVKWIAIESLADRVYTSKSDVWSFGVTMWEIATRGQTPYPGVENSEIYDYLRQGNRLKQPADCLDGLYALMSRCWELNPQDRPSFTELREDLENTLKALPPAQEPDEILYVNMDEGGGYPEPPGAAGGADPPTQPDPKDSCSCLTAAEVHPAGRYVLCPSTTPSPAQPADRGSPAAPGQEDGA

As to “6-{4-[(3-amino- 1H-indazol-4- yl)oxy]piperidin-1- yl}-N- (bicyclo[1.1.1]pent- 1-yl)-2-[(1- cyanocyclopropyl) methoxy] pyrimidine- 4-carboxamide [Example 19]”, the IC50 was 24.7 nM.
Under `C[C@@H](NC(=O)c1cc(N2CCC(c3ccc(N)c(C(N)=O)n3)CC2)nc(OCC2CC2(F)F)n1)C(C)(C)O` (single isomer, unassigned) [Example 15] stands 8.36 nM.
As to `C[C@@H](NC(=O)c1cc(N2CCC(c3ccc(N)c(C(N)=O)n3)CC2)nc(OCC2CC2(F)F)n1)C(C)(C)O` (single isomer, unassigned) [Example 16], the IC50 worked out at 12.6 nM.
`COC[C@@H](C)Oc1nc(C(=O)N[C@H](C)CN(C)C)cc(N2CCC(c3ccc(N)c(C(N)=O)n3)CC2)n1` (single isomer, unassigned) [Example 36]: the IC50 was determined as 87.4 nM.
With `N#C[C@@H]1C[C@@H]1COc1nc(C(=O)NC23CC(C2)C3)cc(N2CCC(COc3cncnc3N)C(F)(F)C2)n1` (single isomer, unassigned) [Example 62], the IC50 came to 38.7 nM.
Consider `N#C[C@@H]1C[C@@H]1COc1nc(C(=O)NC23CC(C2)C3)cc(N2CCC(c3n[nH]c4ncccc34)C(F)C2)n1` (single isomer, unassigned) [Example 74], for which the IC50 came to 15.5 nM.
Under `N#C[C@@H]1C[C@@H]1COc1nc(C(=O)NC23CC(C2)C3)cc(N2CC[C@@H](c3n[nH]c4ncccc34)[C@@H](F)C2)n1` (single isomer, unassigned) [Example 78] stands 8.42 nM; under `N#C[C@@H]1C[C@@H]1COc1nc(C(=O)NC23CC(C2)C3)cc(N2CC[C@H](c3n[nH]c4ncccc34)[C@H](F)C2)n1` (single isomer, unassigned) [Example 79], 56.4 nM; under `CCOc1nc(C(=O)NC2CCC2)cc(N2CCC(c3nc(C(N)=O)ccc3OCCN(C)C)CC2)n1` [Example 2, 6-(4-{6-carbamoyl-3-[2-(dimethylamino)ethoxy]pyridin-2-yl}piperidin-1-yl)-N-cyclobutyl-2-ethoxypyrimidine-4-carboxamide], 246 nM.
As to `COC[C@@H](C)Oc1nc(C(=O)NC2CCC2)cc(N2CCC(c3ccc(N)c(C(N)=O)n3)CC2)n1` [Example 4, 6-[4-(5-amino-6-carbamoylpyridin-2-yl)piperidin-1-yl]-N-cyclobutyl-2-{[(2R)-1-methoxypropan-2-yl]oxy}pyrimidine-4-carboxamide], the IC50 turned out to be 2.83 nM.
Under `NC(=O)c1nc(C2CCN(c3cc(C(=O)NCC(F)(F)F)nc(OCC4CC4(F)F)n3)CC2)ccc1N` (stereo not shown) [Example 5, 6-[4-(5-amino-6-carbamoylpyridin-2-yl)piperidin-1-yl]-2-[(2,2-difluoro-cyclopropyl)methoxy]-N-(2,2,2-trifluoroethyl) pyrimidine-4-carboxamide] stands 12.4 nM; under `COC[C@@H](C)Oc1nc(C(=O)NCC(F)(F)F)cc(N2CCC(c3ccc(N)c(C(N)=O)n3)CC2)n1` [Example 6, 6-[4-(5-amino-6-carbamoylpyridin-2-yl)piperidin-1-yl]-2-{[(2R)-1-methoxypropan-2-yl]oxy}-N-(2,2,2-trifluoroethyl) pyrimidine-4-carboxamide], 29.1 nM.
Consider `COCCNC(=O)c1cc(N2CCC(c3ccc(N)c(C(N)=O)n3)CC2)nc(O[C@H](C)COC)n1` [Example 7, 6-[4-(5-amino-6-carbamoylpyridin-2-yl)piperidin-1-yl]-N-(2-methoxyethyl)-2-{[(2R)-1-methoxypropan-2-yl]oxy}pyrimidine-4-carboxamide], for which the IC50 came to 14.9 nM.
For the molecule `COC[C@@H](C)Oc1nc(C(=O)NCC(C)(C)O)cc(N2CCC(c3ccc(N)c(C(N)=O)n3)CC2)n1` [Example 8, 6-[4-(5-amino-6-carbamoylpyridin-2-yl)piperidin-1-yl]-N-(2-hydroxy-2-methylpropyl)-2-{[(2R)-1-methoxypropan-2-yl]oxy}pyrimidine-4-carboxamide], the IC50 stood at 77.9 nM.
With `COC[C@@H](C)Oc1nc(C(=O)NC2CCC2)cc(N2CCC(c3cccc(C(N)=O)n3)CC2)n1` [Example 11, 6-[4-(6-carbamoylpyridin-2-yl)piperidin-1-yl]-N-cyclobutyl-2-{[(2R)-1-methoxypropan-2-yl]oxy}pyrimidine-4-carboxamide], the IC50 stood at 10.2 nM.
Regarding `C[C@H](NC(=O)c1cc(N2CCC(c3cccc(C(N)=O)n3)CC2)nc(OCC2(C#N)CC2)n1)C(F)(F)F` [Example 13, 6-[4-(6-carbamoylpyridin-2-yl)piperidin-1-yl]-2-[(1-cyanocyclopropyl)methoxy]-N-[(2S)-1,1,1-trifluoropropan-2-yl]pyrimidine-4-carboxamide], the IC50 is 59 nM.
As to `COC[C@@H](C)Oc1nc(C(=O)NC2(C#N)CCC2)cc(N2CCC(c3n[nH]c4ncccc34)CC2)n1` [Example 14, N-(1-cyanocyclobutyl)-2-{[(2R)-1-methoxypropan-2-yl]oxy}-6-[4-(1H-pyrazolo[3,4-b]pyridin-3-yl)piperidin-1-yl]pyrimidine-4-carboxamide], the IC50 came to 12.4 nM.
Under `C[C@@H](NC(=O)c1cc(N2CCC(c3cccc(C(N)=O)n3)CC2)nc(OCC2CC2(F)F)n1)C(C)(C)O` (stereo partly drawn) [Example 17, 6-[4-(6-carbamoylpyridin-2-yl)piperidin-1-yl]-2-[(2,2-difluoro-cyclopropyl)methoxy]-N-[(2R)-3-hydroxy-3-methylbutan-2-yl]pyrimidine-4-carboxamide] stands 39.9 nM.
The value for `CN(C)CCOc1ccc(C(N)=O)nc1C1CCN(c2cc(C(=O)NC3CCC3)nc(OC[C@H]3C[C@H]3C#N)n2)CC1` [Example 18, 6-(4-{6-carbamoyl-3-[2-(dimethylamino)ethoxy]pyridin-2-yl}piperidin-1-yl)-2-{[(1S,2R)-2-cyanocyclopropyl]methoxy}-N-cyclobutyl-pyrimidine-4-carboxamide] was 64.9 nM; that for `CCNC(=O)c1cc(N2CCC(COc3cc(C#N)cnc3N)CC2)nc(O[C@H](C)COC)n1` [Example 21, 6-(4-{[(2-amino-5-cyanopyridin-3-yl)oxy]methyl}piperidin-1-yl)-N-ethyl-2-{[(2R)-1-methoxypropan-2-yl]oxy}pyrimidine-4-carboxamide] was 37 nM; that for `COC[C@@H](C)Oc1nc(C(=O)NC23CC(C2)C3)cc(N2CCC(COc3nc(C)cnc3N)CC2)n1` [Example 24, 6-(4-{[(3-amino-6-methylpyrazin-2-yl)oxy]methyl}piperidin-1-yl)-N-(bicyclo[1.1.1]pent-1-yl)-2-{[(2R)-1-methoxypropan-2-yl]oxy}pyrimidine-4-carboxamide] was 1.92 nM.
On to `CCNC(=O)c1cc(N2CCC(COc3cc(-c4cnn(C)c4)cnc3N)CC2)nc(OC[C@H]2C[C@H]2C#N)n1` [Example 25, 6-[4-({[2-amino-5-(1-methyl-1H-pyrazol-4-yl)pyridin-3-yl]oxy}methyl)piperidin-1-yl]-2-{[(1S,2R)-2-cyanocyclopropyl]methoxy}-N-ethylpyrimidine-4-carboxamide], for which the IC50 is 1.78 nM.
In the case of `N#CC1(COc2nc(C(=O)NCC(F)(F)F)cc(N3CCC(COc4cncnc4N)CC3)n2)CC1` [Example 31, 6-(4-{[(4-aminopyrimidin-5-yl)oxy]methyl}piperidin-1-yl)-2-[(1-cyanocyclopropyl)methoxy]-N-(2,2,2-trifluoroethyl) pyrimidine-4-carboxamide], the IC50 turned out to be 12.6 nM.
Take `N#C[C@@H]1C[C@@H]1COc1nc(C(=O)NCC(F)(F)F)cc(N2CCC(COc3cncnc3N)CC2)n1` [Example 33, 6-(4-{[(4-aminopyrimidin-5-yl)oxy]methyl}piperidin-1-yl)-2-{[(1S,2R)-2-cyanocyclopropyl]methoxy}-N-(2,2,2-trifluoroethyl) pyrimidine-4-carboxamide]: the IC50 is 23.4 nM.
On to `CC(CN(C)C)NC(=O)c1cc(N2CCC(c3ccc(N)c(C(N)=O)n3)CC2)nc(OCC2CC2)n1` (stereo not shown) [Example 34, 6-[4-(5-amino-6-carbamoylpyridin-2-yl)piperidin-1-yl]-2-(cyclopropyl-methoxy)-N-[1-(dimethylamino)propan-2-yl]pyrimidine-4-carboxamide], for which the IC50 came out at 30.5 nM.
Take `CN(C)CCOc1ccc(C(N)=O)nc1C1CCN(c2cc(C(=O)NC3CCC3)nc(OC[C@@H]3C[C@@H]3C#N)n2)CC1` [Example 37, 6-(4-{6-carbamoyl-3-[2-(dimethylamino)ethoxy]pyridin-2-yl}piperidin-1-yl)-2-{[(1R,2S)-2-cyanocyclopropyl]methoxy}-N-cyclobutyl-pyrimidine-4-carboxamide]: the IC50 came out at 242 nM.
Under `CN(C)CCOc1ccc(C(N)=O)nc1C1CCN(c2cc(C(=O)NC3CCC3)nc(OCC3CC3(F)F)n2)CC1` (stereo not shown) [Example 39, 6-(4-{6-carbamoyl-3-[2-(dimethylamino)ethoxy]pyridin-2-yl}piperidin-1-yl)-N-cyclobutyl-2-[(2,2-difluoro-cyclopropyl)methoxy] pyrimidine-4-carboxamide] stands 83.8 nM; under `COC[C@@H](C)Oc1nc(C(=O)NC2CCC2)nc(N2CCC(c3ccc(N)c(C(N)=O)n3)CC2)n1` [Example 40, 4-[4-(5-amino-6-carbamoylpyridin-2-yl)piperidin-1-yl]-N-cyclobutyl-6-{[(2R)-1-methoxypropan-2-yl]oxy}-1,3,5-triazine-2-carboxamide], 5.77 nM.
